Measured values published in PMC10747112, “Triphenylphosphine Derivatives of Allylbenzenes Express Antitumor and Adjuvant Activity When Solubilized with Cyclodextrin-Based Formulations” (Pharmaceuticals, 2023).

Assays:
A549 cells [1] = test: MTT assay, cytotoxic activity against A549; assay type: cell-based; conditions: Homo sapiens, A549; X in M-β-CD 1:5 mol/mol; MTT; read-out: −lg (IC50) of X in M-β-CD against A549 (converted)
Method: Concentrations of the active substance varied from 10^−2 to 10^−4 M. For MTT assay and biological experiments, substances in the concentration range from 10^−3 to 10^−9 M were studied by the dilution of initial ones in a cell growth medium or buffer.
Adenocarcinomic human alveolar basal epithelial cells A549 cell lines (Manassas, VA, USA) were cultured in RPMI-1640 medium, linear cells of the embryonic kidney human epithelium (HEK293T) were grown in DMEM medium as described earlier. Cell lines were obtained from Lomonosov Moscow State University Depository of Live Systems Collection and Laboratory of Medical Biotechnology, Institute of Biomedical Chemistry (Moscow, Russia).
(§1) The cytotoxic activity of paclitaxel, Apiol-PPh3 and analogues was determined using an MTT test. Paclitaxel-adjuvant synergism coefficients (SC) were calculated as CV (paclitaxel) × CV (alone adjuvant)/CV (combo paclitaxel + adjuvant), where CV represents the cell viability. The synergy coefficient can be interpreted as strong synergy (SC > 2), synergy (2 > SC > 1.2), indifference/additivity (1.2 > SC > 0.8), antagonism (0.8 > SC > 0.5), and inhibition (SC < 0.5), as described earlier.

[2] = Solubility by UV spectroscopy (PBS, with and without M-β-CD); assay type: physicochemical; conditions: for solubility: aqueous buffer, thermodynamic from solid
Method: On the contrary, their complexes with M-β-CD are soluble, and a clear peak in the UV spectrum is pronounced (225 nm). Based on UV spectra data in the presence of M-β-CD, the increase in solubility of apiol-PPh3 and analogues by a second order of magnitude is observed (Table 2).
The solubility of apiol and apiol-PPh3 (or analogues) in aqueous solution was determined by UV spectroscopy. UV spectra were recorded on the UltraSpec 2100 pro device (AmerSham Biosciences, Cambridge, UK) three times. The substances were dissolved in acetonitrile followed by recording the UV spectra at various cytostatics’ concentrations, and then we plotted calibration dependencies. Next, saturated solutions of substances in water were prepared, and the spectra of the aqueous solutions were recorded. Considering the extinction coefficients in water and acetonitrile to be approximately equal, the solubility was determined.

[3] = Dissociation constants of complexes with heparin by FTIR spectroscopy (Hill fit); assay type: physicochemical; conditions: calculated per one unit of heparin C12H19NO20S3, PBS
Description: FTIR spectroscopy provides valuable data on the interaction of molecules, including those applicable to characterize the non-covalent complexes of apiol-PPh3 (and analogues) with cyclodextrins and heparin. In the FTIR spectra of apiol-PPh3 and analogues (Figure 3a), one characteristic is the bands of valence oscillations of the bonds C=C of the aromatic system (1450–1650 cm^−1) overlapping with the bands of deformation oscillations C-H (1400–1500 cm^−1). The intensity of these peaks increases with the formation of non-covalent complexes of apiol-PPh3 and its analogues with cyclodextrins and heparin due to the transition of the solid phase into solution. Linear fitting of the intensity of peaks in the FTIR spectra on the cyclodextrin or heparin concentration (Section 2.3) in Hill coordinates allows determining the dissociation constants of the complexes (Table 2). The interactions of triphenylphosphine derivatives of allylbenzenes with γ-CD is rather weak (Kd 10 mM values). In the case of M-β-CD, the dissociation constants reach millimolar values, which is sufficient to obtain soluble forms of adjuvants (Table 2). Thus, the β-cyclodextrin derivatives are more suitable in terms of size for inclusion of the adjuvants studied. […] Comparing the values of the dissociation constants of alkylbenzenes and PPh3-derivatives complexes with cyclodextrins, we observed that these Kd values are close, which means that it is the allylbenzene-fragment (of apiol-PPh3) that plunges into the cyclodextrin cavity, and the triphenylphosphine radical looks outward (Figure 3b), which would provide the implementation of mitochondrial targeting of the developed formulations.
Non-covalent complexes of apiol, apiol-PPh3 and analogues with cyclodextrins (with different molar ratios) and heparin (15 kDa, 1:1 w/w) were obtained by adding solutions of cyclodextrins (100 mg/mL) or heparin (20 mg/mL) in PBS to apiol or apiol-PPh3 (or analogues) samples (2–3 mg). The excess of CDs or heparin was varied from 0.04 to 10 mol/mol. Then, mixtures were incubated for 1 h at 40 °C. Cyclodextrin or heparin are necessary for the solubilization of extremely poorly soluble compounds.
The ATR-FTIR spectra of samples (Section 3.3) were acquired using a Bruker Tensor 27 spectrometer equipped with a liquid N2 cooled MCT (mercury cadmium telluride) detector. Samples were placed in a thermostatic cell BioATR-II with ZnSe ATR element (Bruker, Germany). FTIR spectra were recorded from 850 to 4000 cm^−1 with 1 cm^−1 spectral resolution; 50 scans were accumulated and averaged. Spectral data were processed using the Bruker software system Opus 8.2.28 (Bruker, Germany). The spectrum of cyclodextrin or heparin in the corresponding concentration was subtracted from the spectra of the complexes. […]

A549 cells [4] = test: MTT assay, synergy of adjuvants with paclitaxel against A549; assay type: cell-based, human; conditions: X − M-β-CD, SC = CV(paclitaxel) × CV(adjuvant)/CV(combo)
Description: Apparently PPh3 derivatives effectively penetrate into cancer cells along a potential gradient, inhibit efflux proteins and mitochondrial enzymes, causing the apoptosis of cancer cells, with IC50 values being lower by two orders of magnitude than the corresponding allylbenzene (Table 3). […] For allylbenzenes, a synergy close to additivity (the cytostatic effect of adjuvant + paclitaxel is almost equal to the sum of their individual contributions) was observed; for PPh3 derivatives, a pronounced increase in the action of paclitaxel is characteristic (the cytostatic effect of adjuvant + paclitaxel is much higher (>) than the sum of their individual contributions). For apiol-PPh3, the most pronounced effect of increasing the activity of paclitaxel was observed (Figure 4b).
Figure 4 Viability of A549 cells in the presence of paclitaxel and allylbenzenes’ PPh3 derivatives in the form of complexes with M-β-CD (1:5 mol/mol). MTT assay. (a) Dose–effect graphs. (b) MTT assay results for 100 nM paclitaxel alone and combined with allylbenzenes’ PPh3 derivatives in the form of complexes with M-β-CD (1:5 mol/mol).
as §1

Solubility in the Presence of 0.05 M M-β-CD [2] [µM] | solubility [2] [µM] | −lg Kd (X − Heparin) [3] | Compound | IC50 (A549 cells [1]) [µM] | Synergy Coefficients of Adjuvants and PPh3–Adjuvants with Paclitaxel (A549 cells [4])
17000 ± 5000 | 70 ± 10 | 3.2 ± 0.1 | COc1cc(CCC[P+](c2ccccc2)(c2ccccc2)c2ccccc2)c(OC)c(OC)c1OC [Allyltetramethoxybenzene-PPh3] | 15.8 | 1.3 ± 0.1
8000 ± 1000 | 90 ± 10 | 3.0 ± 0.3 | COc1c(CCC[P+](c2ccccc2)(c2ccccc2)c2ccccc2)cc2c(c1OC)OCO2 [Dillapiol-PPh3] | 2.51 | 1.5 ± 0.1
12000 ± 3000 | 40 ± 5 | 2.6 ± 0.2 | COc1cc(CCC[P+](c2ccccc2)(c2ccccc2)c2ccccc2)cc2c1OCO2 [Myristicin-PPh3] | 5.01 | 1.8 ± 0.3

Compound | Solubility in the Presence of 0.05 M M-β-CD [2] [µM] | solubility [2] [µM] | −lg Kd (X − Heparin) [3] | IC50 (A549 cells [1]) [µM] | Synergy Coefficients of Adjuvants and PPh3–Adjuvants with Paclitaxel (A549 cells [4])
COc1cc(CCC[P+](c2ccccc2)(c2ccccc2)c2ccccc2)c(OC)c2c1OCO2 [Apiol-PPh3] | 15000 ± 2000 | 80 ± 10 | 2.7 ± 0.2 | 1.58 | 2.2 ± 0.2
